Reference: PubChem BioAssay AID1963869 (Molecular Pharmacology Branch, DTP, NCI, 2024)
Values joined by “and” are separate entries in the source; they are usually repeats but may differ in a detail not shown here. Equal entries are not always repeated.

Test system: KRAS patient-derived spheroids with HUVEC/MSC, viability
Assay: Anticancer human tumor 323965-272-R-J2-PDC patient-derived pancreatic carcinoma cell line growth inhibition [KRAS2]
Conditions: for viability, T/C: stronger effect = lower value
Source text: Multicellular complex tumor spheroid response to RAS pathway inhibitors in combination with a targeted agents in patient-derived cell lines with oncogenic KRAS variants from multiple cancer types
A high-throughput screen of multi-cell type tumor spheroids was designed to identify active combinations of targeted small molecules and KRAS pathway inhibitors. Complex spheroids include a stromal component modeled by human endothelial cells (HUVEC) and fibroblasts modeled by human mesenchymal stem cells (MSCs). The concentration ranges selected for each drug and investigational agent were based upon clinically achievable concentrations if the clinical Cmax of the agent was known.
Compounds. The drugs and investigational agents: BI-3406 (NSC825286), BAY-293 (NSC824723), batoprotafib (TNO155; NSC825523), sotorasib (AMG 510; NSC818433), MRTX1257 (NSC819558), elimusertib (BAY 1895344; NSC800525), molibresib (GSK525762; NSC774829), temuterkib (LY3214996; NSC803410), venetoclax (NSC766270), alisertib (NSC759677), olaparib (NSC753686), talazoparib (NSC767125), erdafitinib (NSC781556), ipatasertib (NSC767898), cabozantinib (NSC761068), nintedanib (NSC756659), abemaciclib (NSC768073), docetaxel (NSC628503), trametinib (NSC758246), and sapanisertib (NSC764658) were obtained from the National Cancer Institute (NCI) Developmental Therapeutics Program Chemical Repository. The FDA-approved anticancer drug set is available from the Developmental Therapeutics Program. […] The stock solutions were prepared in dimethyl sulfoxide (DMSO, Sigma-Aldrich, St. Louis, MO, cat. D2650) at 800-fold the tested concentration and stored at -70 degrees C prior to their use. All drugs and investigational agents were tested over a range starting from a high concentration at or near the clinical Cmax and decreasing in half-log increments. If the clinical Cmax for an agent had not been determined, the highest concentration tested was 10 microM.
Cell Culture. All cells were maintained in an incubator at 37 degrees C and 5% CO2 with 95% humidity. The PDC lines were cultured according to standard operating procedures established by the NCI PDMR (https://pdmr.cancer.gov/sops/default.htm). Briefly, all PDCs were thawed and cultured in Matrigel-coated flasks prepared with a working solution of 1X Ham's F-12 nutrient mix, without supplementation (Invitrogen, Waltham, MA, cat. 11765054), 100 U/mL penicillin-streptomycin (Invitrogen, cat. 15140122), and 2.5% Matrigel (Corning Inc., Corning, NY, cat. 354248) for the first three passages. All PDCs were cultured in complete DMEM/F-12 media containing advanced DMEM/F-12 (Invitrogen, cat. 12634028), 4.9% defined fetal bovine serum, heat inactivated (HyClone Laboratories Inc., Logan, UT, cat. SH30070.03HI), 389 ng/mL hydrocortisone (Sigma-Aldrich, cat. H4001), 9.7 ng/mL human EGF recombinant protein (Invitrogen, cat. PHG0313), 23.4 microg/mL adenine (Sigma-Aldrich, cat. A2786), 97.3 U/mL penicillin-streptomycin (Invitrogen, cat. 15140122), 1.9 mM L-glutamine (Invitrogen, cat. 25030081), and 9.7 microM Y-27632 dihydrochloride (Tocris Bioscience, Bristol, United Kingdom, cat. 1254). The PDCs were cultured in complete DMEM/F12 media without 9.7 microM Y-27632 dihydrochloride for at least two passages prior to the screen. The established cell line HOP-62 was cultured in RPMI 1640 medium, HEPES (Invitrogen, cat. 22400105) with 10% defined fetal bovine serum (HyClone Laboratories Inc., cat. SH30070.03) and 2 mM L-glutamine (Invitrogen, cat. 25030081). The pooled donor HUVEC were cultured in endothelial cell growth medium 2 (PromoCell, Heidelberg, Germany, cat. C-22011) and the hMSC were cultured in mesenchymal stem cell growth medium 2 (PromoCell, cat. C-28009). For all experiments, HUVEC and hMSC were used at passages </=5, while the malignant cell lines were used at passages </=15. […]

[1] = compound alone, run of 08/19/2021
[2] = compound alone, run of 08/26/2021
[3] = compound alone, run of 09/02/2021
[4] = curve of first compound, second compound 0.1 µM
[5] = curve of first compound, second compound 0.316 µM
[6] = curve of first compound, second compound 1 µM
[7] = curve of first compound, second compound 3.16 µM
[8] = curve of first compound, second compound 10 µM
[9] = second compound 0.1 µM, first compound 0.01 µM
[10] = second compound 0.1 µM, first compound 0.0316 µM
[11] = second compound 0.1 µM, first compound 0.1 µM
[12] = second compound 0.316 µM, first compound 0.01 µM
[13] = second compound 0.316 µM, first compound 0.0316 µM
[14] = second compound 0.316 µM, first compound 0.1 µM
[15] = second compound 1 µM, first compound 0.01 µM
[16] = second compound 1 µM, first compound 0.0316 µM
[17] = second compound 1 µM, first compound 0.1 µM
[18] = second compound 3.16 µM, first compound 0.01 µM
[19] = second compound 3.16 µM, first compound 0.0316 µM
[20] = second compound 3.16 µM, first compound 0.1 µM
[21] = second compound 10 µM, first compound 0.01 µM
[22] = second compound 10 µM, first compound 0.0316 µM
[23] = second compound 10 µM, first compound 0.1 µM
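Note: spheroids exposed to agents for 7 days.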
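Throughout, for viability, T/C: 100% = DMSO vehicle control viability.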

Question: How did the viability, T/C (compound 0.1 µM) turn out when `C=CC(=O)N1CCN(c2nc(=O)n(-c3c(C)ccnc3C(C)C)c3nc(-c4c(O)cccc4F)c(F)cc23)C(C)C1` (stereo not drawn) was run?
Answer: 58.9% [middle of 17 runs]

Question: And the viability, T/C (compound 0.316 µM)?
Answer: 58.4% [middle of 17 runs]

Question: What about the viability, T/C (compound 1 µM) of the same compound?
Answer: 59.1% [middle of 17 runs]

Question: What about the viability, T/C (compound 3.16 µM) of the same compound?
Answer: 60.4% [middle of 17 runs]

Question: What about the viability, T/C (compound 10 µM) of the same compound?
Answer: 52% [middle of 17 runs]

Question: And the IC50 [1]?
Answer: > 10 µM and 2.73 µM

Question: What about the IC50 [2] of the same compound?
Answer: > 10 µM and 7.82 µM and 9.64 µM

Question: What about the IC50 [3] of the same compound?
Answer: > 10 µM

Question: Which viability, T/C (compound 0.316 µM) does the source give for `CNCc1ccccc1-c1csc(C(C)Nc2nc(C)nc3cc(OC)c(OC)cc23)c1` (stereo not drawn) here?
Answer: 89.6% [middle of 16 runs]

Question: What about the viability, T/C (compound 1 µM) of the same compound?
Answer: 89.2% [middle of 16 runs]

Question: And the IC50 [2]?
Answer: 5.39 µM [middle of 4 runs]

Question: What about the IC50 [3] of the same compound?
Answer: 4.96 µM [middle of 6 runs]

Question: With `COC(=O)c1ccc2c(C(=Nc3ccc(N(C)C(=O)CN4CCN(C)CC4)cc3)c3ccccc3)c(O)[nH]c2c1` as the compound, how does the viability, T/C (compound 0.0316 µM) read?
Answer: 97.4% [middle of 5 runs]

Question: And the viability, T/C (compound 0.1 µM)?
Answer: 102% [middle of 5 runs]

Question: And the viability, T/C (compound 0.316 µM)?
Answer: 101% [middle of 5 runs]

Question: And the viability, T/C (compound 1 µM)?
Answer: 98% [middle of 5 runs]

Question: What about the viability, T/C (compound 3.16 µM) of the same compound?
Answer: 98.7% [middle of 5 runs]

Question: What about the IC50 (curve of compound) of the same compound?
Answer: 7.38 µM and > 10 µM and 7.57 µM

Question: Which results are given for `COc1cc2nc(C)nc(NC(C)c3cc(N)cc(C(F)(F)F)c3)c2cc1OC1CCOC1` (stereo not drawn)?
Answer: viability, T/C (compound 0.316 µM): 75.7% [middle of 17 runs]; viability, T/C (compound 3.16 µM): 77.2% [middle of 17 runs]; IC50 [1]: > 10 µM; IC50 [2]: > 10 µM; IC50 [3]: > 10 µM

Question: Which results are given for `CC(=O)OC12COC1CC(O)C1(C)C(=O)C(O)C3=C(C)C(OC(=O)C(O)C(NC(=O)OC(C)(C)C)c4ccccc4)CC(O)(C(OC(=O)c4ccccc4)C21)C3(C)C` (stereo not drawn) + C=CC(=O)N1CCN(c2nc(=O)n(-c3c(C)ccnc3C(C)C)c3nc(-c4c(O)cccc4F)c(F)cc23)C(C)C1?
Answer: IC50 [4]: < 0.01 µM; IC50 [5]: < 0.01 µM; IC50 [6]: < 0.01 µM; IC50 [7]: < 0.01 µM; IC50 [8]: < 0.01 µM; viability, T/C [9]: 22.7%; viability, T/C [10]: 21.7%; viability, T/C [11]: 19.9%; viability, T/C (second compound 0.1 µM, first compound 0.316 µM): 19.2%; viability, T/C (second compound 0.1 µM, first compound 1 µM): 18.9%; viability, T/C (second compound 0.1 µM, first compound 3.16 µM): 22.2%; viability, T/C [12]: 21.9%; viability, T/C [13]: 21.5%; viability, T/C [14]: 21.6%; viability, T/C (second compound 0.316 µM, first compound 0.316 µM): 19.4%; viability, T/C (second compound 0.316 µM, first compound 1 µM): 20.9%; viability, T/C (second compound 0.316 µM, first compound 3.16 µM): 21.1%; viability, T/C [15]: 21.3%; viability, T/C [16]: 19.2%; viability, T/C [17]: 19.6%; viability, T/C (second compound 1 µM, first compound 0.316 µM): 17.4%; viability, T/C (second compound 1 µM, first compound 1 µM): 18.7%; viability, T/C (second compound 1 µM, first compound 3.16 µM): 19.7%; viability, T/C [18]: 19.7%; viability, T/C [19]: 21.9%; viability, T/C [20]: 17.6%; viability, T/C (second compound 3.16 µM, first compound 0.316 µM): 19.6%; viability, T/C (second compound 3.16 µM, first compound 1 µM): 18.9%; viability, T/C (second compound 3.16 µM, first compound 3.16 µM): 18.5%; viability, T/C [21]: 21.3%; viability, T/C [22]: 19.6%; viability, T/C [23]: 19.8%; viability, T/C (second compound 10 µM, first compound 0.316 µM): 15.6%; viability, T/C (second compound 10 µM, first compound 1 µM): 16%; viability, T/C (second compound 10 µM, first compound 3.16 µM): 16.7%

Question: Which IC50 [4] does the source give for `CN(C)C/C=C/C(=O)Nc1cc2c(Nc3ccc(F)c(Cl)c3)ncnc2cc1O[C@H]1CCOC1` + C=CC(=O)N1CCN(c2nc(=O)n(-c3c(C)ccnc3C(C)C)c3nc(-c4c(O)cccc4F)c(F)cc23)C(C)C1 here?
Answer: 0.00619 µM

Question: What about the IC50 [5] of the same compound?
Answer: 0.00129 µM

Question: And the IC50 [6]?
Answer: 0.00187 µM

Question: What about the IC50 [7] of the same compound?
Answer: 0.00424 µM

Question: And the IC50 [8]?
Answer: 0.00148 µM

Question: What about the viability, T/C (second compound 0.1 µM, first compound 0.000316 µM) of the same compound?
Answer: 63.3%

Question: What about the viability, T/C (second compound 0.1 µM, first compound 0.001 µM) of the same compound?
Answer: 50.9%

Question: What about the viability, T/C (second compound 0.1 µM, first compound 0.00316 µM) of the same compound?
Answer: 49.6%

Question: And the viability, T/C [9]?
Answer: 57.7%

Question: What about the viability, T/C [10] of the same compound?
Answer: 43.1%

Question: And the viability, T/C [11]?
Answer: 44%

Question: And the viability, T/C (second compound 0.316 µM, first compound 0.000316 µM)?
Answer: 61.3%

Question: What about the viability, T/C (second compound 0.316 µM, first compound 0.001 µM) of the same compound?
Answer: 50%

Question: What about the viability, T/C (second compound 0.316 µM, first compound 0.00316 µM) of the same compound?
Answer: 47.3%

Question: What about the viability, T/C [12] of the same compound?
Answer: 42.4%

Question: What about the viability, T/C [13] of the same compound?
Answer: 41.8%

Question: And the viability, T/C [14]?
Answer: 40.5%

Question: What about the viability, T/C (second compound 1 µM, first compound 0.000316 µM) of the same compound?
Answer: 58.6%

Question: What about the viability, T/C (second compound 1 µM, first compound 0.001 µM) of the same compound?
Answer: 54.2%

Question: And the viability, T/C (second compound 1 µM, first compound 0.00316 µM)?
Answer: 50.5%

Question: What about the viability, T/C [15] of the same compound?
Answer: 41.3%

Question: And the viability, T/C [16]?
Answer: 37.8%

Question: What about the viability, T/C [17] of the same compound?
Answer: 44.6%

Question: And the viability, T/C (second compound 3.16 µM, first compound 0.000316 µM)?
Answer: 58.1%

Question: And the viability, T/C (second compound 3.16 µM, first compound 0.001 µM)?
Answer: 58%

Question: What about the viability, T/C (second compound 3.16 µM, first compound 0.00316 µM) of the same compound?
Answer: 50.1%

Question: What about the viability, T/C [18] of the same compound?
Answer: 48%

Question: What about the viability, T/C [19] of the same compound?
Answer: 40.5%

Question: And the viability, T/C [20]?
Answer: 42.5%

Question: What about the viability, T/C (second compound 10 µM, first compound 0.000316 µM) of the same compound?
Answer: 62.2%

Question: What about the viability, T/C (second compound 10 µM, first compound 0.001 µM) of the same compound?
Answer: 53%

Question: And the viability, T/C (second compound 10 µM, first compound 0.00316 µM)?
Answer: 44.6%

Question: What about the viability, T/C [21] of the same compound?
Answer: 45.6%

Question: And the viability, T/C [22]?
Answer: 45.7%

Question: What about the viability, T/C [23] of the same compound?
Answer: 43.5%
